This note sets out measurements from ChEMBL document CHEMBL1201862, “PubChem BioAssay data set” (2004).

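Cells were grown in 96-well plates and exposed to each compound for 48 hours at five concentrations; endpoints were interpolated linearly between bracketing concentrations, or set to the highest concentration if not reached. The concentration for 50% growth inhibition is given as GI50.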 The source made the active and inactive calls. Rule as the data show it: active = GI50 up to about 1.1 µM and inactive = higher.

Test systems include OVCAR-5; HCC 2998; A498; SK-MEL-5; KM12; SR; A549; OVCAR-8; DU-145; MCF7; LOX IMVI; RXF 393; COLO 205; TK-10; Hs-578T; NCI-H226; MDA-MB-231; SNB-19; SK-MEL-2; SK-MEL-28.
Experiment in all cases: growth of human tumour cells (NCI), 48 h

Consider `CCOC(=O)COC1=Nc2cc(OC)c(OC)c3nc(Cl)cc(c23)C1=O`, for which the GI50 in the test on OVCAR-5 is 1.94 µM (inactive); in the test with HCC 2998, 5.5 µM (inactive); in the test on A498, 11.4 µM (inactive); in the test with SK-MEL-5, 1.88 µM (inactive); in the test with KM12, 14.8 µM (inactive); with SR, 0.94 µM (active). The GI50 was 6.18 µM (inactive) with A549; 2.43 µM (inactive) with OVCAR-8; 1.82 µM (inactive) in the test on DU-145; 1.7 µM (inactive) with MCF7; 1.98 µM (inactive) with LOX IMVI; 1.75 µM (inactive) with RXF 393. For the same molecule, the GI50 with COLO 205 was 1.92 µM (inactive); in the test on TK-10 it was 1.96 µM (inactive); in the test on Hs-578T, 2.77 µM (inactive); with NCI-H226 it was 11.1 µM (inactive); with MDA-MB-231, 1.76 µM (inactive); in the test with SNB-19 it was 6.08 µM (inactive). Further, the GI50 with SK-MEL-2 is 2 µM (inactive); with SK-MEL-28, 1.99 µM (inactive).

Consider `CCC1=NC(N/N=C/c2ccco2)=N/C1=C\c1ccccc1O`, for which the GI50 with OVCAR-5 is 78.7 µM (inactive); in the test with HCC 2998 it was 20.8 µM (inactive); in the test on A498 it was 68.9 µM (inactive); with SK-MEL-5, 27.2 µM (inactive); with KM12 it was 31.5 µM (inactive); with SR, 48.4 µM (inactive). Further, the GI50 in the test on A549 is 41.1 µM (inactive); in the test on OVCAR-8, 25.4 µM (inactive); with DU-145, 55.6 µM (inactive); with MCF7, 17.9 µM (inactive); in the test with LOX IMVI it was 35 µM (inactive); in the test on RXF 393, 82.4 µM (inactive). Also, the GI50 in the test with COLO 205 was 44.3 µM (inactive); in the test with TK-10 it was 59.4 µM (inactive); in the test on Hs-578T it was 30.6 µM (inactive); with NCI-H226, 28.4 µM (inactive); in the test on MDA-MB-231 it was > 100 µM (inactive); with SNB-19 it was 47.9 µM (inactive). Besides, the GI50 with SK-MEL-2 is 25.9 µM (inactive); in the test with SK-MEL-28 it was 38.3 µM (inactive).

In the case of `O=C(CC1C(=O)Nc2ccccc2[S+]1[O-])Nc1cccc(Cl)c1` (stereo not given), the GI50 was > 62.7 µM (inactive) with OVCAR-5; > 47.5 µM (inactive) with HCC 2998; 13.2 µM (inactive) in the test with A498; > 30.9 µM (inactive) in the test with SK-MEL-5; > 57.9 µM (inactive) in the test with KM12; 4.93 µM (inactive) with SR. Besides, the GI50 in the test on A549 was > 100 µM (inactive); in the test with OVCAR-8, 33 µM (inactive); in the test with DU-145 it was 32.5 µM (inactive); in the test on MCF7, 13.8 µM (inactive); in the test with LOX IMVI it was > 100 µM (inactive); in the test on RXF 393, 20.9 µM (inactive). Further, the GI50 was > 41 µM (inactive) in the test on COLO 205; > 58.9 µM (inactive) in the test with TK-10; 38.1 µM (inactive) in the test on Hs-578T; 44.3 µM (inactive) in the test with NCI-H226; 7.31 µM (inactive) in the test with MDA-MB-231; 30.5 µM (inactive) in the test on SNB-19. The figures for the GI50 with SK-MEL-2 and in the test with SK-MEL-28 were 55.5 µM (inactive) and > 57.7 µM (inactive), respectively.
